The values that follow come from ChEMBL document CHEMBL5053531, “Development of BromoTag: A "Bump-and-Hole"-PROTAC System to Induce Potent, Rapid, and Selective Degradation of Tagged Target Proteins” (J Med Chem, 2021).

Active and inactive are the calls of the source.

In general, half-life refers to the time needed for the level to fall by half in the phase considered. A lower half-life goes with fast loss. Broadly, the AUC(0-inf) is the area under the concentration-time curve extrapolated to infinity. Read a low AUC(0-inf) as less exposure. Usually MRT inf stands for the average time that molecules of a dose stay in the body.

Series [1] can be described thus: Half life in C57BL/6 mouse at 5 mg/kg, sc measured up to 8 hrs by LC-MS analysis. The following applies: in vivo. Format: ADME, organism-based.
Series [2] can be described thus: AUC (0 to infinity) in C57BL/6 mouse at 5 mg/kg, sc measured up to 8 hrs by LC-MS analysis. Format: ADME, organism-based. Set-up: dose 5 mg/kg, time < 8 hrs, route sc. The following applies: in vivo.
Series [3] can be described thus: Bioavailability in C57BL/6 mouse at 5 mg/kg, sc measured up to 8 hrs by LC-MS analysis. The following applies: in vivo. Type of series: ADME, organism-based.
The nature of series [4]: Half life in C57BL/6 mouse at 5 mg/kg, iv measured up to 8 hrs by LC-MS analysis. Type of series: ADME, organism-based. The note with it: in vivo.
Series [5] in a line: MRT (0 to infinity) in C57BL/6 mouse at 5 mg/kg, iv measured up to 8 hrs by LC-MS analysis. The following applies: in vivo.
Series [6] relates to CWR22R. Kind of series: cells. The following applies: Homo sapiens, 22Rv1, 48 h, read-out: pEC50 (converted).
Description: Antiproliferative activity against human BET-sensitive 22Rv1 cells assessed as reduction in cell viability measured after 48 hrs by Celltiter-Glo assay
Series [7] can be described thus: Stability in mouse plasma measured up to 60 mins. The following applies: 1 h. Format: ADME, cell-free.
Series [8] has as its target T1, von Hippel-Lindau disease tumor suppressor/Bromodomain-containing protein 2 (Homo sapiens, UniProt P25440+P40337). As to the kind of experiment: Bump and hole PROTAC activity at BromoTag-Brd2/VHL-bound E3 ligase in HEK293 cells assessed as Brd2 degradation measured after 6 hrs by Western blot analysis. Format: cell-based. In general terms: A western blot detects proteins with antibodies after separation by electrophoresis.
Target sequence in this assay (P25440 whole entry): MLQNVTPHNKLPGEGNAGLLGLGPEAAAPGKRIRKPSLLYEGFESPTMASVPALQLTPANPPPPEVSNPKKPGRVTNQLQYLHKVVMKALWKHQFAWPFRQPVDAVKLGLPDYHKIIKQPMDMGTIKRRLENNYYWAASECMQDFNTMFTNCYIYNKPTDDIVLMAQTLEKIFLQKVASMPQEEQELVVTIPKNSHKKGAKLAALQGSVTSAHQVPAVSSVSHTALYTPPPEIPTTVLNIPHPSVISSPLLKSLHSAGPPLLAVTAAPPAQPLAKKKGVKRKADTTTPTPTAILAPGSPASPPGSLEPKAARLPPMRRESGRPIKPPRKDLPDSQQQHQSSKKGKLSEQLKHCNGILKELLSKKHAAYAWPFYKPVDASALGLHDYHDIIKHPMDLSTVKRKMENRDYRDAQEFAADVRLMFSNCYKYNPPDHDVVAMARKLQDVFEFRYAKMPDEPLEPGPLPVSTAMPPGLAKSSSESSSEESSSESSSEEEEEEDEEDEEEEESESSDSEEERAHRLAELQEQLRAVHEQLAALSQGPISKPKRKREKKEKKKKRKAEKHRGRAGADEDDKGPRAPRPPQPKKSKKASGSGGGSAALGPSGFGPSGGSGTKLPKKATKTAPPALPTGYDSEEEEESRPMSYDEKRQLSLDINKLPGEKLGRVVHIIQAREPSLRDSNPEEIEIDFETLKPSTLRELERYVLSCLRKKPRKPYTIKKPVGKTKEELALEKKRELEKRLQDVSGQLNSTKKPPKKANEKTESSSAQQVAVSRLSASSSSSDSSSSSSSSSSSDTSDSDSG
Target sequence in this assay (P40337 whole entry): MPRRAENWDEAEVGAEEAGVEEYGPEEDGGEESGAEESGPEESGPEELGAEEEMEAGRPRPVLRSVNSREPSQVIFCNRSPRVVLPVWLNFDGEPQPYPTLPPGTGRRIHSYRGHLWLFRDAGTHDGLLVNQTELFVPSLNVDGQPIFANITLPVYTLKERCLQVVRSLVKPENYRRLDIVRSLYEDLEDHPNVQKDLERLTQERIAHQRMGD

Series [9] concerns the target T1, von Hippel-Lindau disease tumor suppressor/Bromodomain-containing protein 2. As to the kind of experiment: Bump and hole PROTAC activity at BromoTag-Brd2/VHL-bound E3 ligase in HEK293 cells assessed as Brd2 degradation at 0.001 to 10 uM measured after 6 hrs by Western blot analysis. Type of series: cell-based. The following applies: dose 0.001-10 µM.
Target sequence in this assay (P25440 whole entry, looked up): as the sequence (P25440 whole entry) above
Target sequence in this assay (P40337 whole entry, looked up): as the sequence (P40337 whole entry) above
Series [10] has the same target. As to the kind of experiment: Bump and hole PROTAC activity at BromoTag-Brd2/VHL-bound E3 ligase in HEK293 cells assessed as Brd2 degradation at 1 uM measured after 6 hrs by Western blot analysis. Format: cell-based.
Target sequence in this assay (P25440 whole entry, looked up): as the sequence (P25440 whole entry) above
Target sequence in this assay (P40337 whole entry, looked up): as the sequence (P40337 whole entry) above

In the case of `Cc1ncsc1-c1ccc(CNC(=O)[C@@H]2C[C@@H](O)CN2C(=O)[C@@H](NC(=O)COCCOCCOCCNC(=O)C[C@@H]2N=C(c3ccc(Cl)cc3)c3c(sc(C)c3C)-n3c(C)nnc32)C(C)(C)C)cc1`, the half-life in series [1] is 2.95 h; in [4] it was 1.04 h. This compound also yielded an AUC(0-inf) in [2] of 3.76 µM·h. Besides, the bioavailability in series [3] came to 83%. The same compound had a mean residence time (MRT inf) in series [5] of 0.34 h.
Consider `CC[C@@H](C(=O)OCCOCCOCCOCC(=O)N[C@H](C(=O)N1C[C@@H](O)C[C@H]1C(=O)NCc1ccc(-c2scnc2C)cc1)C(C)(C)C)[C@@H]1N=C(c2ccc(Cl)cc2)c2c(sc(C)c2C)-n2c(C)nnc21`, for which the EC50 in [6] was 5.01 µM.
As for `CC[C@@H](C(=O)OCCOCCOCCOCC(=O)N[C@H](C(=O)N1C[C@H](O)C[C@H]1C(=O)NCc1ccc(-c2scnc2C)cc1)C(C)(C)C)[C@@H]1N=C(c2ccc(Cl)cc2)c2c(sc(C)c2C)-n2c(C)nnc21`, the bioavailability in series [3] was 140%. Moreover, in [7], the Stability entry is recorded as “Stable”.
On to `CCC(C(=O)OCCOCCCOCC(=O)N[C@H](C(=O)N1C[C@H](O)C[C@H]1C(=O)N[C@@H](C)c1ccc(-c2scnc2C)cc1)C(C)(C)C)C1N=C(c2ccc(Cl)cc2)c2c(sc(C)c2C)-n2c(C)nnc21` (mixture of isomers), for which, in series [8], the pDC50 came out at 7.8.
As for `CCC(C(=O)NCCOCCCOCC(=O)N[C@H](C(=O)N1C[C@H](O)C[C@H]1C(=O)N[C@@H](C)c1ccc(-c2scnc2C)cc1)C(C)(C)C)C1N=C(c2ccc(Cl)cc2)c2c(sc(C)c2C)-n2c(C)nnc21` (mixture of isomers), the Brd2 degradation activity result in [9] is “Active”.
Take `CC[C@@H](C(=O)NCCOCCOCCOCC(=O)N[C@H](C(=O)N1C[C@H](O)C[C@H]1C(=O)NCc1ccc(-c2scnc2C)cc1)C(C)(C)C)[C@@H]1N=C(c2ccc(Cl)cc2)c2cc(OC)ccc2-n2c(C)nnc21` (mixture of isomers): in [10], the outcome was inactive.
Consider `CC[C@@H](C(=O)NCCOCCOCCOCC(=O)N[C@H](C(=O)N1C[C@H](O)C[C@H]1C(=O)NCc1ccc(-c2scnc2C)cc1)C(C)(C)C)[C@@H]1N=C(c2ccc(Cl)cc2)c2ccc(OC)cc2-n2c(C)nnc21` (mixture of isomers), for which the result in series [10] was inactive.
On the same count and under the same terms, then `COc1ccc2c(c1)-n1c(C)nnc1[C@H]([C@@H](C)C(=O)NCCOCCOCCOCC(=O)N[C@H](C(=O)N1C[C@H](O)C[C@H]1C(=O)NCc1ccc(-c3scnc3C)cc1)C(C)(C)C)N=C2c1ccc(Cl)cc1` (mixture of isomers), with “inactive”.
In the case of `Cc1ncsc1-c1ccc(CNC(=O)[C@@H]2C[C@@H](O)CN2C(=O)[C@@H](NC(=O)COCCOCCOCCNC(=O)C(C)C2N=C(c3ccc(Cl)cc3)c3c(sc(C)c3C)-n3c(C)nnc32)C(C)(C)C)cc1` (mixture of isomers), the Brd2 degradation activity entry in [9] is “Active”.
Turning to `Cc1ncsc1-c1ccc(CNC(=O)[C@@H]2C[C@@H](O)CN2C(=O)[C@@H](NC(=O)COCCOCCOCCOC(=O)C(C)C2N=C(c3ccc(Cl)cc3)c3c(sc(C)c3C)-n3c(C)nnc32)C(C)(C)C)cc1` (mixture of isomers), the Brd2 degradation activity entry in [9] is “Active”.
The same measure, in the same setting: then `Cc1ncsc1-c1ccc([C@H](C)NC(=O)[C@@H]2C[C@@H](O)CN2C(=O)[C@@H](NC(=O)COCCCOCCNC(=O)C(C)C2N=C(c3ccc(Cl)cc3)c3c(sc(C)c3C)-n3c(C)nnc32)C(C)(C)C)cc1` (mixture of isomers), with “Active”; and `Cc1ncsc1-c1ccc([C@H](C)NC(=O)[C@@H]2C[C@@H](O)CN2C(=O)[C@@H](NC(=O)COCCCOCCOC(=O)C(C)C2N=C(c3ccc(Cl)cc3)c3c(sc(C)c3C)-n3c(C)nnc32)C(C)(C)C)cc1` (mixture of isomers), with “Active”.
